EC50 data for five compounds are collected here from patent US12091398B2, “PD-L1 antagonist compound” (ADLAI NORTYE BIOPHARMA CO., LTD., priority 2019, dated 2024).

Each structure is given as a SMILES string. Read-outs that look alike come from different tables or passages of the source.

The subject of this test is PD-1/PD-L1 interaction. Description: Cell based PD-1/PD-L1 NFAT reporter assay. Also on record: species or system human. The note with it: Homo sapiens, PD-1/NFAT-Reporter-Jurkat cells co-cultured with TCR activator/PD-L1-CHO cells, 6 hour incubation, luciferase, calibrated to Atezolizumab 10 nM, read-out: Absolute EC50. The method in brief: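 Compounds preincubated 30 min on TCR activator/PD-L1 CHO cells seeded overnight, then co-cultured 6 h with PD-1/NFAT-luciferase Jurkat cells; luminescence read by ONE-Glo. Percent inhibition normalised to 0.1% DMSO vehicle and to atezolizumab (10 nM) as positive control.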

With `COc1cc(Cn2nnc3c(-c4cccc(-c5ccc(CNC[C@@H]6CCC(=O)N6)cc5)c4Cl)cccc32)c(Cl)cc1CN[C@@H](CO)C(=O)O` [Compound 92, (5-chloro-4-((4-(2-chloro-4′-(((((S)-5-oxopyrrolidin-2-yl)methyl)amino)methyl)-[1,1′-biphenyl]-3-yl)-1H-benzo[d][1,2,3]triazol-1-yl)methyl)-2-methoxybenzyl)-L-serine], the EC50 (6 h) worked out at 0.416 µM.

In the case of `COc1cc(Cn2cnc3c(-c4cccc(-c5ccc(CNC[C@@H]6CCC(=O)N6)cc5)c4Cl)cccc32)c(Cl)cc1CN[C@@H](CO)C(=O)O` [Compound 93, (5-chloro-4-((4-(2-chloro-4′-(((((S)-5-oxopyrrolidin-2-yl)methyl)amino)methyl)-[1,1′-biphenyl]-3-yl)-1H-benzo[d]imidazol-1-yl)methyl)-2-methoxybenzyl)-L-serine], the EC50 (6 h) is 2.13 µM.

As to `CN1CCC2(CC1)CCN(Cc1cccc(-c3cccc4c3cnn4Cc3cc(OCc4cncc(C#N)c4)c(CN[C@@H](CO)C(=O)O)cc3Cl)c1Cl)CC2` [Compound 94, (5-chloro-4-((4-(2-chloro-3-((9-methyl-3,9-diazaspiro[5.5]undecan-3-yl)methyl)phenyl)-1H-indazol-1-yl)methyl)-2-((5-cyanopyridin-3-yl)methoxy)benzyl)-L-serine], the EC50 (6 h) is above 10 µM.

On to `CN1CCC2(CC1)CCN(C(=O)c1cccc(-c3cccc4c3cnn4Cc3cc(OCc4cncc(C#N)c4)c(CN[C@@H](CO)C(=O)O)cc3Cl)c1Cl)CC2` [Compound 95, (5-chloro-4-((4-(2-chloro-3-(9-methyl-3,9-diazaspiro[5.5]undecane-3-carbonyl)phenyl)-1H-indazol-1-yl)methyl)-2-((5-cyanopyridin-3-yl)methoxy)benzyl)-L-serine], for which the EC50 (6 h) is above 10 µM.

With `CN1CCC2(CC1)CCN(c1cccc(-c3cccc4c3cnn4Cc3cc(OCc4cncc(C#N)c4)c(CN[C@@H](CO)C(=O)O)cc3Cl)c1Cl)CC2` [Compound 96, (5-chloro-4-((4-(2-chloro-3-(9-methyl-3,9-diazaspiro[5.5]undecan-3-yl)phenyl)-1H-indazol-1-yl)methyl)-2-((5-cyanopyridin-3-yl)methoxy)benzyl)-L-serine], the EC50 is 2.45 µM.
